# Assay results published in paper PMC7930822, “Phase I Trial to Evaluate the Tolerance, Pharmacokinetics and Efficacy of the Broad-Spectrum ErbB Family Inhibitor Larotinib Mesylate in Patients With Advanced Solid Tumors” (Frontiers in Pharmacology, 2021).
# Structures can show the parent of a compound that is named as a salt. Where two headings read alike, the source gives them in different places.
# Assays:
# wild-type EGFR [1] = experiment: in vitro kinase inhibition, wild-type EGFR; type: biochemical
# Procedure: Larotinib mesylate (Figure 1) is a novel, potent broad-spectrum TKI with EGFR as the main target with a 50% inhibitory concentration (IC50) of 0.6 nM (data not published). […] We hypothesized that the characteristics of larotinib mesylate that facilitate simultaneous inhibition of multiple kinases may improve the tumor inhibiting effect of the drug and decrease the emergence of resistance to larotinib mesylate in solid tumor cells.
# [2] = urine and fecal excretion recovery, cycle 0; type: in vivo; conditions: human, oral
# Procedure: Blood samples (4 ml) for pharmacokinetic analyses were collected in tubes containing K2EDTA anticoagulant. Blood samples were centrifuged at 3,000 rpm for 10 min at 4°C and stored at –80°C until liquid chromatography-mass spectrophotometry (LC-MS/MS) analysis. Urine and fecal samples were collected only when patients were given the150-mg and 220-mg dose levels at sampling time intervals of 0–4, 4–8, 8–12, 12–24, 24–48, 48–72, 72–96 and 96–120 h in cycle 0.
# Linear mixed effects model was used to explore the dose exposure relationships. Dose proportionality was concluded if the 95% confidence interval (CI) of the linear regression slope was completely contained within the decision interval (1 + ln (0.8)/ln (8)∼1 + ln (1.25)/ln (8)). For urine and fecal data, the accumulative excretion rates of larotinib and M5 were calculated.
# Bioanalysis was performed at Frontage Company (Shanghai, China). Validated high-performance LC-MS/MS method was used to quantify the concentrations of larotinib and M5 in plasma, urine and feces samples. Protein precipitation was employed for plasma, urine and feces processing. Plasma larotinib and M5 concentrations were determined using appropriate calibration curves obtained from standards in the range of 0.5–1,000 ng/ml. The interassay precision of the analysis method were 4.2–5.4% for larotinib and 3.9–4.3% for M5. The interassay accuracy of the analysis method were 100.4–103.4% for larotinib and 102.2–102.9% for M5, respectively.
# [3] = tested on: patients with advanced solid tumors; experiment: tumor evaluation by RECIST version 1.1; type: in vivo, human; conditions: for Disease control, n (%): CR, PR and SD; for Objective response, n (%): complete plus partial response
# Procedure: Tumor evaluation was performed at screening, the end of cycle 1, and every two cycles of subsequent treatment according to RECIST version 1.1. The disease control rate (DCR) (including CR, PR and SD), objective remission rate (ORR) (including CR and PR), and progression-free survival (PFS) were also evaluated.
# Blood samples for EGFR mutation site analyses were collected in screening, cycle 1 day 29, cycle 3 days 29 and every 8 weeks for the subsequent follow-up. Second-generation sequencing method was used to detect the amplification and mutation of the related tumor genes.
# wild-type EGFR [4] = tested on: wild-type EGFR; parameters: method as in data not published; conditions: ref data not published, cited from earlier work
# [5] = tested on: EGFR with the L858R mutation; parameters: method as in data not published; conditions: ref data not published; cited from earlier work
# [6] = tested on: EGFR with a deletion in the exon 19; parameters: method as in data not published; conditions: ref data not published; cited from earlier work
# EGFR (T790M) = tested on: EGFR (T790M); parameters: method as in data not published; conditions: ref data not published; cited from earlier work
# [7] = molecular target: receptor-interacting serine/threonine-protein kinase 2 (RIPK2); parameters: method as in data not published; conditions: ref data not published; cited from earlier work
# [8] = molecular target: interleukin-1 receptor-associated kinase 1 (IRAK1); parameters: method as in data not published; conditions: ref data not published; cited from earlier work
# [9] = molecular target: Bruton’s tyrosine kinase (BTK); parameters: method as in data not published; conditions: ref data not published; cited from earlier work
# Sprague–Dawley rats = tested on: Sprague–Dawley rats; parameters: method as in data not published; conditions: ref data not published, cited from earlier work
# beagle dogs = tested on: beagle dogs; parameters: method as in data not published; conditions: ref data not published, cited from earlier work
structure (smiles),measurement,setting,value
COc1cc2ncnc(Nc3ccc(F)c(Cl)c3)c2cc1OCCCN1C[C@@H]2OCCO[C@@H]2C1 [larotinib mesylate],fold greater inhibitory activity than gefitinib,"wild-type EGFR [1]; ref Baselga and Averbuch, 2000",37 fold
same,fold greater inhibitory activity than erlotinib,"wild-type EGFR [1]; ref Moyer et al., 1997",3 fold
same,dose excreted,"[2]; feces, 150-mg group, read-out: 0–120 h excretion recovery percentage in feces",6.01%
same,dose excreted,"[2]; feces, 220-mg group, read-out: 0–120 h excretion recovery percentage in feces",7.89%
same,dose excreted,"[2]; 150-mg group, urine plus feces, read-out: 0–120 h excretion recovery percentage, total",7.41%
same,dose excreted,"[2]; 220-mg group, urine plus feces, read-out: 0–120 h excretion recovery percentage, total",9.25%
same,dose excreted,"[2]; urine, 150-mg group, read-out: 0–120 h excretion recovery percentage in urine",1.4%
same,dose excreted,"[2]; urine, 220-mg group, read-out: 0–120 h excretion recovery percentage in urine",1.36%
same,"Complete response, n (%)",[3]; 50 mg (n = 3),0 (0)
same,"Partial response, n (%)",[3]; 50 mg (n = 3),0 (0)
same,"Progressive disease, n (%)",[3]; 50 mg (n = 3),1 (33.3)
same,"Stable disease, n (%)",[3]; 50 mg (n = 3),2 (66.7)
same,"Disease control, n (%)",[3]; 50 mg (n = 3),2 (66.7)
same,"Objective response, n (%)",[3]; 50 mg (n = 3),0 (0)
same,"Complete response, n (%)",[3]; 100 mg (n = 3),0 (0)
same,"Partial response, n (%)",[3]; 100 mg (n = 3),0 (0)
same,"Progressive disease, n (%)",[3]; 100 mg (n = 3),1 (33.3)
same,"Stable disease, n (%)",[3]; 100 mg (n = 3),2 (66.7)
same,"Disease control, n (%)",[3]; 100 mg (n = 3),2 (66.7)
same,"Objective response, n (%)",[3]; 100 mg (n = 3),0 (0)
same,"Complete response, n (%)",[3]; 150 mg (n = 3),0 (0)
same,"Partial response, n (%)",[3]; 150 mg (n = 3),0 (0)
same,"Progressive disease, n (%)",[3]; 150 mg (n = 3),1 (33.3)
same,"Stable disease, n (%)",[3]; 150 mg (n = 3),2 (66.7)
same,"Disease control, n (%)",[3]; 150 mg (n = 3),2 (66.7)
same,"Objective response, n (%)",[3]; 150 mg (n = 3),0 (0)
same,"Complete response, n (%)",[3]; 220 mg (n = 3),0 (0)
same,"Partial response, n (%)",[3]; 220 mg (n = 3),1 (33.3)
same,"Progressive disease, n (%)",[3]; 220 mg (n = 3),0 (0)
same,"Stable disease, n (%)",[3]; 220 mg (n = 3),2 (66.7)
same,"Disease control, n (%)",[3]; 220 mg (n = 3),3 (100)
same,"Objective response, n (%)",[3]; 220 mg (n = 3),1 (33.3)
same,"Complete response, n (%)",[3]; 300 mg (n = 6),0 (0)
same,"Partial response, n (%)",[3]; 300 mg (n = 6),0 (0)
same,"Progressive disease, n (%)",[3]; 300 mg (n = 6),4 (66.7)
same,"Stable disease, n (%)",[3]; 300 mg (n = 6),2 (33.3)
same,"Disease control, n (%)",[3]; 300 mg (n = 6),2 (33.3)
same,"Objective response, n (%)",[3]; 300 mg (n = 6),0 (0)
same,"Complete response, n (%)",[3]; 350 mg (n = 3),0 (0)
same,"Partial response, n (%)",[3]; 350 mg (n = 3),1 (33.3)
same,"Progressive disease, n (%)",[3]; 350 mg (n = 3),0 (0)
same,"Stable disease, n (%)",[3]; 350 mg (n = 3),2 (66.7)
same,"Disease control, n (%)",[3]; 350 mg (n = 3),3 (100)
same,"Objective response, n (%)",[3]; 350 mg (n = 3),1 (33.3)
same,"Complete response, n (%)",[3]; 400 mg (n = 3),0 (0)
same,"Partial response, n (%)",[3]; 400 mg (n = 3),0 (0)
same,"Progressive disease, n (%)",[3]; 400 mg (n = 3),0 (0)
same,"Stable disease, n (%)",[3]; 400 mg (n = 3),3 (100)
same,"Disease control, n (%)",[3]; 400 mg (n = 3),3 (100)
same,"Objective response, n (%)",[3]; 400 mg (n = 3),0 (0)
same,duration of maintained PR,"[3]; NSCLC patient, 350-mg group, no EGFR-sensitive mutations",19 cycles
same,"Complete response, n (%)",[3]; Total (n = 24),0 (0)
same,"Partial response, n (%)",[3]; Total (n = 24),2 (8.3)
same,"Progressive disease, n (%)",[3]; Total (n = 24),7 (29.2)
same,"Stable disease, n (%)",[3]; Total (n = 24),15 (62.5)
same,"Disease control, n (%)",[3]; Total (n = 24),17 (70.8)
same,"Objective response, n (%)",[3]; Total (n = 24),2 (8.3)
same,cases of PR among five patients with EGFR mutations at baseline,[3]; after cycle one,1
same,cases of SD among five patients with EGFR mutations at baseline,[3]; after cycle one,4
same,"stable disease as best overall response, patients",[3]; all dose levels,15
same,overall disease control rate (DCR),"[3]; all dose levels, 24 evaluable",70.8%
same,IC50,wild-type EGFR [4]; EGFR as the main target,0.6 nM
same,IC50,wild-type EGFR [4]; wild-type EGFR,0.611 nM
same,IC50,[5],0.563 nM
same,inhibition,[6],potently inhibited
same,IC50,EGFR (T790M),45.2 nM
same,IC50,[7],26.6 nM
same,IC50,[8],167 nM
same,IC50,[9],196 nM
same,no observed adverse effect level (NOAEL),Sprague–Dawley rats; daily administration,10 mg/kg
same,maximal tolerable dose (MTD),Sprague–Dawley rats,20 mg/kg
same,lowest observed adverse effect level (LOAEL),beagle dogs; daily administration,5 mg/kg
same,maximal tolerable dose (MTD),beagle dogs,25 mg/kg
